{
  "source": "patent US20120195911A1",
  "about": "“Method of treatment of cancer patients” (priority 2011, published 2012)",
  "key": {"Stomach Cancer": {"test_system": "Stomach Cancer", "assay": "Comparative study of treatment with Valacyclovir before standard treatment, stomach cancer patients", "assay_type": "in vivo, human", "settings": "Valacyclovir (Acyclovir) before standard treatment or with chemotherapy", "experimental": "(§1) All the patients belonged to the second clinical group with stage 3 illness. In the capacity of a control group (Control), the following were used: 10 cervical cancer patients, 12 stomach cancer patients, and 10 mammary gland cancer patients from clinical group 2 with stage 3 illnesses. In the control group the patients were treated without the use of Valacyclovir and Acyclovir. As may be seen in the table, the remission periods due to the use of Valacyclovir (Acyclovir) before standard methods of treatment or in combination with chemotherapy doubled for mammary gland cancer and quintupled for stomach cancer. In the majority of the patients (more than 72%), metastasis was not seen for the entire period of observation (3 years)."}, "Mammary Gland Cancer": {"test_system": "Mammary Gland Cancer", "assay": "Comparative study of treatment with Valacyclovir before standard treatment, mammary gland cancer patients", "assay_type": "in vivo, human", "settings": "Valacyclovir (Acyclovir) before standard treatment or with chemotherapy", "experimental": "as §1"}, "[1]": {"test_system": "adenocarcinomas with various localizations", "assay": "Comparative study, all cancer patients of the experimental group together", "assay_type": "in vivo, human", "settings": "for long-term remission of the illness: fewer than 3 courses of seven days", "experimental": "as §1, with “years). […] The use of the antiviral drug is not useful for a longer period, as the remission period begins for the patient and the drug is ineffective.” for “years).”"}, "[2]": {"test_system": "T2N1M0 mammary gland cancer", "assay": "Case report: preoperational Valacyclovir in mammary gland cancer", "assay_type": "in vivo, human", "settings": "Patient L., 1 g 3 times a day, 7 days, three courses, then radical mastectomy; three-year period", "experimental": "(§2) […] Before treatment with Acyclovir, the antigen to cytomegalovirus (CMV) was found in 85% of the patient's lymphocytes through the fluorescing antibody method (FAM) and therapy was administered with the use of Valacyclovir. 1 g of medication was given 3 times a day for 7 days in a row in three courses in intervals of seven days each. Then the patient underwent a radical mastectomy. Postoperative chemotherapy was not used. […] CMV antigens were not found in the lymphocytes."}, "T3N1M0 stomach cancer": {"test_system": "T3N1M0 stomach cancer", "assay": "Case reports: preoperative Valacyclovir in stomach cancer", "assay_type": "in vivo, human", "settings": "then subtotal resection", "experimental": "(§3) […] CMV antigens were found using the FAM in 90% of the lymphocytes before treatment with Valacyclovir. The patient then underwent Valacyclovir therapy. 2 g of medication was administered 4 times a day for 7 days in a row in three courses in intervals of seven days each. Then a subtotal resection was performed on the patient's stomach. Postoperative chemotherapy was not used. […] Laboratory study of the patient's lymphocytes every year found CMV antigens in 10-15% of the cells. At the end of the first and second year, the patient received another course of Valacyclovir.\nEBV antigens were found 80% of the lymphocytes and CMV was found in 90% of the lymphocytes using the FAM in before treatment with Valacyclovir. The patient then underwent combination therapy with antiviral drugs: immunoglobulin to treat the EBV at a dosage of 13 ml of a 10% solution immediately (7 ml per injection) intravenously once a week three times; immunoglobulin to treat the CMV at a dosage of 13 ml of a 10% solution immediately (7 ml per injection) intramuscularly once a week three times; two 1 g tablets of Valacyclovir 3 times per day in 3 courses of 7 days each; Laferobion 3 million IU once per day daily for seven days in a row. Then a subtotal resection was performed on the patient's stomach. Postoperative chemotherapy was not used. […]"}, "T4N1M0 cervical cancer": {"test_system": "T4N1M0 cervical cancer", "assay": "Case report: Valacyclovir before radiation therapy for cervical cancer", "assay_type": "in vivo, human", "settings": "Patient S.", "experimental": "(§4) […] CMV was found with the FEM in 80% of lymphocytes before treatment with Valacyclovir. The patient then underwent Valacyclovir therapy. 2 g of medication was administered 4 times a day for 7 days in a row in three courses in intervals of seven days each. Then the patient underwent a standard schedule of radiological treatment. Chemotherapy was not used. […] Laboratory study of the patient's lymphocytes every year found CMV antigens, but only in 20-30% of the cells. The patient underwent two more courses of treatment with Valacyclovir according to the schedule above once per year."}, "T4N1M0 prostate cancer": {"test_system": "T4N1M0 prostate cancer", "assay": "Case report: Valacyclovir with chemotherapy in prostate cancer", "assay_type": "in vivo, human", "settings": "Patient D., 2 g orally 4 times a day, 7 days, three courses, in parallel with CVPM chemotherapy; three-year period", "experimental": "(§5) […] Valacyclovir was administered as treatment. CMV antigens were found in 95% of the patient's lymphocytes before treatment with Valacyclovir. 2 g of medication was administered orally 4 times a day for 7 days in a row in three courses in intervals of seven days each in parallel with CVPM chemotherapy. Other treatment methods were not used. […] Laboratory study of the patient's lymphocytes every year found CMV antigens in 10-15% of the cells. The patient underwent two more courses of treatment with Valacyclovir in combination with chemotherapy once per year."}, "cytomegalovirus (CMV)": {"test_system": "cytomegalovirus (CMV)", "assay": "CMV antigens in patient's lymphocytes (fluorescing antibody method / indirect immunofluorescence reaction)", "assay_type": "in vivo, human", "experimental": "as §2, §3, §4, §5\n(§6) EBV antigens were found 80% of the lymphocytes and CMV was found in 90% of the lymphocytes using the FAM in before treatment with Valacyclovir. The patient then underwent combination therapy with antiviral drugs: immunoglobulin to treat the EBV at a dosage of 13 ml of a 10% solution immediately (7 ml per injection) intravenously once a week three times; immunoglobulin to treat the CMV at a dosage of 13 ml of a 10% solution immediately (7 ml per injection) intramuscularly once a week three times; two 1 g tablets of Valacyclovir 3 times per day in 3 courses of 7 days each; Laferobion 3 million IU once per day daily for seven days in a row. Then a subtotal resection was performed on the patient's stomach. Postoperative chemotherapy was not used. […] Laboratory study of the patient's lymphocytes every year found CMV and EBV antigens in 10-15% of the cells."}, "EBV": {"test_system": "EBV", "assay": "EBV antigens in patient's lymphocytes (fluorescing antibody method)", "assay_type": "in vivo, human", "settings": "Patient (stomach cancer), combination with immunoglobulins and Laferobion; 80% before treatment", "experimental": "as §6"}, "[3]": {"test_system": "neuroblastoma cells infected by HCMV", "settings": "long-term cultured HCMV-infected neuroblastoma cells resistant to cysplatin and etoposide; virus reproduction blocked; cited from earlier work"}, "[4]": {"test_system": "EBV-associated nasopharyngeal carcinomas", "settings": "nasopharyngeal carcinomas in athymus mice; cited from earlier work"}},
  "data": [
    {"smiles": "CC(C)[C@H](N)C(=O)OCCOCn1cnc2c(=O)[nH]c(N)nc21", "note": "[Valacyclovir]", "values": [
      {"measurement": "change of remission period versus control", "setting": "Stomach Cancer", "value": "quintupled"},
      {"measurement": "change of remission period versus control", "setting": "Mammary Gland Cancer", "value": "doubled"},
      {"measurement": "patients in whom metastasis was not seen for the entire period of observation", "setting": "[1]; experimental group, observation 3 years", "value": "more than 72%"},
      {"measurement": "long-term remission of the illness", "setting": "[1]; less than 1 g 3 times a day perorally", "value": "does not provide long-term remission"},
      {"measurement": "relapses", "setting": "[2]", "value": "No relapses were seen"},
      {"measurement": "relapses", "setting": "T3N1M0 stomach cancer; Patient B., 2 g 4 times a day, 7 days, three courses, three-year period", "value": "No relapses were seen"},
      {"measurement": "relapses", "setting": "T3N1M0 stomach cancer; Patient, Valacyclovir combined with EBV and CMV immunoglobulins and Laferobion, four-year period", "value": "No relapses were seen"},
      {"measurement": "relapses", "setting": "T4N1M0 cervical cancer; 2 g 4 times a day, 7 days, three courses, then radiological treatment, three-year period", "value": "No relapses were seen"},
      {"measurement": "metastasis", "setting": "T4N1M0 cervical cancer; during the observation time", "value": "no metastasis"},
      {"measurement": "relapses", "setting": "T4N1M0 prostate cancer", "value": "No relapses were seen"},
      {"measurement": "CMV antigens in lymphocytes after treatment", "setting": "cytomegalovirus (CMV); Patient (stomach cancer), combination with immunoglobulins and Laferobion, 90% before treatment", "value": "10-15%"},
      {"measurement": "CMV antigens in lymphocytes after treatment", "setting": "cytomegalovirus (CMV); Patient B. (stomach cancer), yearly study, 90% of lymphocytes before treatment", "value": "10-15%"},
      {"measurement": "CMV antigens in lymphocytes after treatment", "setting": "cytomegalovirus (CMV); Patient D. (prostate cancer), yearly study, 95% of lymphocytes before treatment", "value": "10-15%"},
      {"measurement": "CMV antigens in lymphocytes after treatment", "setting": "cytomegalovirus (CMV); Patient L., yearly checkup by IIR, 85% of lymphocytes before treatment", "value": "not found"},
      {"measurement": "CMV antigens in lymphocytes after treatment", "setting": "cytomegalovirus (CMV); Patient S. (cervical cancer), yearly study, 80% of lymphocytes before treatment", "value": "20-30%"},
      {"measurement": "EBV antigens in lymphocytes after treatment", "setting": "EBV", "value": "10-15%"}
    ]},
    {"smiles": "Nc1nc(O)c2ncn(COC(CO)CO)c2n1", "note": "[Ganciclovir]", "values": [
      {"measurement": "sensitivity to the action of antitumor drugs", "setting": "[3]", "value": "fully restored"}
    ]},
    {"smiles": "Nc1ccn(C[C@@H](CO)OCP(=O)(O)O)c(=O)n1", "note": "[Cidofovir, (S)-1-(3-hydroxy-2-phpsphonyl-methoxypropyl) cytosine]", "values": [
      {"measurement": "apoptosis in EBV-transformed epithelial cells", "setting": "[4]", "value": "causes a quick induction of apoptosis"}
    ]},
    {"smiles": "Nc1nc2c(ncn2COCCO)c(=O)[nH]1", "note": "[Acyclovir]", "values": [
      {"measurement": "long-term remission of the illness", "setting": "[1]; less than 0.5 g 2 times a day in injected form", "value": "does not provide long-term remission"}
    ]}
  ]
}
